Experiment [1] concerns ERK2. The experiment can be described thus: P-ERK2 western blot of area CA1 after contextual fear conditioning. As to conditions: MK-801 300 μg/kg 1 h prior to training; SL327 100 mg/kg immediately after training.
The nature of experiment [2]: Contextual fear conditioning, freezing behavior. To be noted: for spontaneous freezing behavior on re-exposure 24 h after mock training, no shock (FIG. 11D): sodium butyrate 1.2 g/kg vs saline; for spontaneous freezing behavior during mock training, no shock (FIG. 11C): sodium butyrate 1.2 g/kg, 3 min in training chamber.
For experiment [3], the system named is histone H4 (Lys5/Lys8/Lys12/Lys16). The experiment can be described thus: Acetylation of histone H4 in area CA1 after contextual fear conditioning. To be noted: injection of MK-801 1 h prior to or SL327 immediately after training.
Experiment [4] relates to histone H3 (Lys14). Nature of the experiment: Acetylation of histone H3 in area CA1 after contextual fear conditioning. To be noted: injection of MK-801 1 h prior to or SL327 immediately after training.
The test system of experiment [5] is Schaffer-collateral synapses. Nature of the experiment: Slice electrophysiology, basal synaptic transmission (baseline fEPSP, input/output, paired-pulse facilitation, tetanus depolarization). To be noted: sodium butyrate for 20 min vs vehicle. It counts as cell-based, Sprague-Dawley rats.
Experiment [6] relates to histone H4 (Lys5/Lys8/Lys12/Lys16). The experiment can be described thus: Acetylation of histone H4, acute hippocampal slices, area CA1. As to conditions: slices exposed to NaB for 40 min; data not shown.
A short description of experiment [7]: Passive avoidance task. It counts as in vivo, Sprague-Dawley rats. As for the experimental part:
The effect of the exemplary histone deacetylase inhibitor sodium butyrate (NaB) on the exemplary hippocampus-dependent long-term memory paradigm of passive avoidance was determined. In the passive avoidance task, animals associate a dark chamber with an aversive stimulus. In the passive avoidance task, animals are placed into the lighted side of a 2-chamber shuttle box (Med Associates). An open doorway in the middle of the shuttle box leads to a dark side. Animals are allowed to move into the dark side of the chamber, upon which time the door is closed and animals are allowed to explore the dark side for 5 sec prior to receiving a brief electric shock (2 sec, 0.5 mA). Animals are given an additional 5 sec of exploration time prior to removal from the shuttle box. Latency to enter the dark side of the shuttle box is recorded for all experimental animals during the training day. Passive avoidance memory is assessed by measuring latency to enter the dark side of the shuttle box, minus the latency to enter the dark side on the training day. Passive avoidance memory was only tested once from each animal to eliminate the effect of extinction. NaB (1.2 g/kg) was administered 45 min prior to passive avoidance training.

The nature of experiment [8]: Novel object recognition task. It counts as in vivo, Sprague-Dawley rats. As for the experimental part: The effect of the exemplary histone deacetylase inhibitor sodium butyrate (NaB) on the exemplary hippocampus-dependent long-term memory paradigm of novel object recognition was determined. In the novel object task, an animal's ability to discriminate between a familiar and a novel object is tested. Novel object recognition training is performed over 4 consecutive days. During each day, animals are placed individually into a small holding cage prior to introduction to the training arena (44 cm^2). The first day consists of habituating animals to the training arena for 10 min. During the second and third days, the training arena has 8 small Duplo® Blocks (Lego®, 2 each: yellow, blue, red, green) placed 2 cm from the edge of the arena. During days 2 and 3, animals are simultaneously habituated to the Duplo blocks and tested for color and arena-position biases. On day 4, 2 distinct novel objects made from Duplo blocks (approx. 10×5×5 cm) are placed in opposite corners of the arena, 2 cm from the walls. Animals are allowed to explore the objects for 10 min. During each session in the arena, movement of the animal will be tracked by an automated video-based system (Limelight) and the arena and Duplo blocks are thoroughly rinsed with 10% EtOH to remove any scent cues left by subjects. During the final training session on day 4, exploration time of each object is tracked. […] Novel object recognition is assessed by calculating preference indices ([TimeNovel−TimeFamilar]) after exposure of animals to one familiar, and one novel object. Animals received an injection of either saline or NaB 45 min before the training session on day 4.

For experiment [9], the system named is survival motor neuron (SMN) protein. To be noted: SMA lymphoid cell lines; Chang et al. (2001); cited from earlier work.
Experiment [10] deals with SMA-like mice. To be noted: Chang et al. (2001), cited from earlier work.
The test system of experiment [11] is histone H3 (Lys14). The experiment can be described thus: Acetylation of histone H3, acute hippocampal slices, area CA1. As to conditions: slices exposed to NaB for 40 min; data not shown.
[12] abbreviates: sodium butyrate 1.2 g/kg 1 h prior to 1-shock contextual fear conditioning, vs saline.
Setting [13] is: sodium butyrate 1.2 g/kg 1 h prior to 1-shock contextual fear conditioning, vs saline, listed as NaB.
The mark [14] stands for this setting: NaB 1.2 g/kg 45 min prior to training.
Where [15] appears, read: NaB 45 min before the training session on day 4, vs saline.

“Also recorded” adds a separate entry of the source.

For `C[C@]12N[C@H](Cc3ccccc31)c1ccccc12` [MK-801], the “increase in P-ERK2 in area CA1 1 h after fear conditioning” value in experiment [1] is “blocked the increase in P-ERK2; also recorded: inhibited the increase in P-ERK2”. For the same compound, in [2] (MK-801 300 μg/kg 1 h prior to training, vs saline), the “freezing behavior 24 h after contextual fear conditioning (contextual fear memory)” value is “blocked; also recorded: less freezing behavior than animals injected with saline”. Moreover, in experiment [3], the “histone H4 acetylation in area CA1 after fear conditioning” value is “no effect on histone H4 acetylation”. The “increase in acetylation of histone H3 in area CA1 1 h after fear conditioning” value in experiment [4] is “inhibited the increase in H3 acetylation; also recorded: No change in H3 acetylation”.
Take `CCCC(=O)[O-].[Na+]` [sodium butyrate]: in experiment [5], the input/output relationships result was “No significant differences” and the paired-pulse facilitation entry is “unaffected”. In [5] (listed as NaB), the input/output relationships entry is on record as “no significant affect on input/output relationships” and the paired-pulse facilitation entry is reported as “no significant affect”. In addition, in experiment [2] (setting [12]), the “freezing behavior during training (FIG. 11A)” value is on record as “unaffected”; the “freezing behavior during training (FIG. 11E, short-term memory study)” value was “unaffected”; the “freezing behavior on re-exposure to the training chamber 24 h after training (FIG. 11B)” value is recorded as “significantly more freezing behavior than animals injected with saline”. Also, in experiment [2] (setting [13]), the “freezing behavior during training (FIG. 11A)” value is “no affect on freezing behavior observed during training”; the “freezing behavior during training (FIG. 11E, short-term memory study)” value was “no significant differences were seen in freezing behavior”; the “freezing behavior on re-exposure 1 h after training, short-term memory (FIG. 11F)” value was “no effect on freezing behavior”. In addition, in experiment [2], the “spontaneous freezing behavior on re-exposure 24 h after mock training, no shock (FIG. 11D)” value was “no affect on spontaneous freezing behavior”. Besides, the “spontaneous freezing behavior on re-exposure 24 h after mock training, no shock (FIG. 11D)” value in [2] (listed as NaB) is listed as “no significant differences in the amount of freezing behavior”. Moreover, the “spontaneous freezing behavior during mock training, no shock (FIG. 11C)” value in experiment [2] (vs saline) was “unaffected”. The “spontaneous freezing behavior during mock training, no shock (FIG. 11C)” value in [2] (vs saline, listed as NaB) was “no acute effects on freezing behavior”. For the same compound, in [6], the “acetylation of histone H4” value is reported as “elevated”. Further, in [7] (setting [14]), the “passive avoidance memory (latency to enter dark side) 1 day after training” value is “did not affect long-term passive avoidance memory”, the “passive avoidance memory (latency to enter dark side) 7 days after training” value was “significant affects on passive avoidance memory” and the “passive avoidance memory (latency to enter dark side) 14 days after training” value is listed as “significant affects on passive avoidance memory”. In addition, the “long-term passive avoidance memory” value in [7] (NaB 45 min prior to passive avoidance training, vs saline) is on record as “enhances long-term passive avoidance memory”. For the same compound, in experiment [8] (setting [15]), the “novel object recognition (preference index) 1 day after training” value was “performed significantly better than animals that received saline”, the “novel object recognition (preference index) 7 days after training” value was “performed significantly better than animals that received saline” and the “novel object recognition (preference index) day 14” value was “A trend for enhanced performance”. The “long-term novel object recognition memory” value in experiment [8] (NaB 45 min prior to novel object training, vs saline) is “enhances long-term novel object recognition memory”. The “amount of exon 7-containing SMN protein” value in experiment [9] is listed as “effective at increasing the amount of exon 7-containing survival motor neuron (SMN) protein”. Moreover, in experiment [10] (SMA-like mice), the “expression of SMN protein in spinal cord motor neurons” value is recorded as “increased expression of SMN protein in spinal cord motor neurons” and the symptoms result is reported as “improved symptoms”. Also, in experiment [10] (heterozygous knock-out transgenic SMA-like mice bred), the “birth rate of severe types of SMA-like mice” value is “decreased the birth rate of severe types of SMA-like mice”. Further, the “acetylation of histone H3” value in [11] was “elevated”.

Source of the values: patent publication US20060018921A1, “Histone deacetylase inhibitors and cognitive applications” (priority 2004, published 2006).
